Where two headings read alike, the source gives them in different places.
Columns and labels:
Assay type in all cases: in vivo
[1] = test system: two-spotted spider mite (Tetranychus urticae); experiment: Insecticidal test for two-spotted spider mite, ovicide method; details: for pest or weed control at 2.5 ppm: Tetranychus urticae, foliar, 144 h, read-out: SM: activity at 2.5 ppm against two-spotted spider mite (% Control rating)
[2] = test system: Sweetpotato Whitefly (Bemisia tabacia); experiment: Insecticidal test for Sweetpotato Whitefly (cotton plant spray); details: 200 ppm spray on cotton plants, 13 days, reduction of large nymphs; for pest or weed control at 200 ppm: Bemisia, 312 h, read-out: WF: activity at 200 ppm against whitefly (% Control rating)
[3] = test system: beet armyworm (Spodoptera exigua); experiment: Insecticidal test for beet armyworm (treated lepidopteran diet); details: 400 ppm, treated diet, second-instar larvae, 5 days; for pest or weed control at 400 ppm: Spodoptera exigua, 120 h, read-out: BAW: activity at 400 ppm against beet armyworm (% Control rating)
[4] = test system: cotton aphid (Aphis gossvpii); experiment: Insecticidal test for cotton aphid (squash cotyledon spray); details: 50 ppm spray on infested squash cotyledons, 3 days, population reduction versus untreated; for pest or weed control at 50 ppm: 72 h, read-out: CA: activity at 50 ppm against cotton aphid (% Control rating)
[5] = test system: tobacco budworm (Heliothis virescens); experiment: Insecticidal test for tobacco budworm (cotton cotyledon leaf-disc dip); details: 400 ppm, cotton cotyledon leaf-dip, 2nd instar larvae, 5 days; for pest or weed control at 400 ppm: Heliothis virescens, 120 h, read-out: TBW: activity at 400 ppm against tobacco budworm (% Control rating)
[6] = test system: Brown Planthopper (Nilaparvata lugens); experiment: Insecticidal test for Brown Planthopper (rice seedling roots in test solution); details: 10 ppm test solution, rice seedling roots, 3rd instar nymphs, mortality at 6 days
[7] = test system: cabbage looper (Trichoplusia ni); experiment: Insecticidal test for cabbage looper (cabbage leaf-disc dip); details: 400 ppm, cabbage leaf-dip, 2nd instar larvae, 5 days; for pest or weed control at 400 ppm: Trichoplusia ni, 120 h, read-out: CL: activity at 400 ppm against cabbage looper (% Control rating)
[8] = test system: Green Leafhopper (Nephotettix cincticeps); experiment: Insecticidal test for Green Leafhopper (rice seedling roots in test solution); details: 10 ppm test solution, rice seedling roots, 3rd instar nymphs, mortality at 6 days
[9] = 2.5 ppm (table footnote), ovicide method on cotton leaf discs, 6 days

SMILES | SM: activity at 2.5 ppm against two-spotted spider mite (% Control rating) [1, 9] | WF: activity at 200 ppm against whitefly (% Control rating) [2] | BAW: activity at 400 ppm against beet armyworm (% Control rating) [3] | CA: activity at 50 ppm against cotton aphid (% Control rating) [4] | TBW: activity at 400 ppm against tobacco budworm (% Control rating) [5] | BPH: activity at 10 ppm against brown planthopper (% Control rating) [6] | CL: activity at 400 ppm against cabbage looper (% Control rating) [7] | GLH: activity at 10 ppm against green leafbopper (% Control rating) [8] | pest or weed control at 2.5 ppm [1, 9] | pest or weed control at 200 ppm [2] | pest or weed control at 400 ppm [3] | pest or weed control at 400 ppm [7] | pest or weed control at 50 ppm [4] | pest or weed control at 400 ppm [5] | pest or weed control at 2.5 ppm ([1]; in Gossypium hirsutum)
Cc1c(C#Cc2ccccc2)csc1-c1nc(-c2c(F)cccc2Cl)nn1C [Compound 67] | B (80-89) | F (less than 50) | A (90-100) | A (90-100) | B (80-89) | – | – | – | – | – | – | – | – | – | –
Cn1nc(-c2c(F)cccc2Cl)nc1-c1ccc(C#Cc2ccc(F)cc2)c(Cl)c1Cl [Compound 92] | F (less than 50) | F (less than 50) | A (90-100) | A (90-100) | – | F (less than 50) | A (90-100) | F (less than 50) | – | – | – | – | – | – | –
CCN(CC)c1ncc(C#Cc2sc(-c3nc(-c4c(F)cccc4Cl)nn3C)c(Cl)c2Cl)cn1 [Compound 41] | – | – | – | – | – | E (50-59) | – | – | < 50% | < 50% | 90 to 100% | 80 to 89% | < 50% | 60 to 69% | –
Cn1nc(-c2c(F)cccc2Cl)nc1-c1sc(C#CC(C)(C)C)c(Cl)c1Cl [Compound 3] | – | – | – | – | – | – | – | – | 80 to 89% | < 50% | – | 90 to 100% | 90 to 100% | 60 to 69% | –
Cn1nc(-c2c(F)cccc2Cl)nc1-c1sc(C#Cc2cccc(F)c2F)c(Cl)c1Cl [Compound 27] | F (less than 50) | D (60-69) | A (90-100) | – | D (60-69) | E (50-59) | A (90-100) | F (less than 50) | – | – | – | – | – | – | –
Cn1nc(-c2c(F)cccc2Cl)nc1-c1sc(C#Cc2ccccc2)c(Cl)c1Cl [Compound 4] | – | – | – | – | – | E (50-59) | – | – | 60 to 69% | < 50% | 90 to 100% | 90 to 100% | 80 to 89% | < 50% | –
Cn1nc(-c2c(F)cccc2Cl)nc1-c1sc(C#C[Si](C)(C)C)c(Cl)c1Cl [Compound 1, 1-Methyl-3-(2-chloro-6-fluorophenyl)-5-(3,4-dichloro-5-(2-trimethylsilyl-ethynyl)-thien-2-yl) [1 2,4]triazole] | – | – | – | – | – | F (less than 50) | – | B (80-89) | – | < 50% | 90 to 100% | 90 to 100% | 50 to 59% | 90 to 100% | 80 to 89%
Cn1nc(-c2c(F)cccc2Cl)nc1-c1ccc(C#C[Si](C)(C)C)c(Cl)c1Cl [Compound 96] | D (60-69) | F (less than 50) | A (90-100) | D (60-69) | F (less than 50) | – | A (90-100) | – | – | – | – | – | – | – | –
